Drawing on publication PMC12263422, “Cryo-EM structure of the human THIK-1 K2P K^+ channel reveals a lower Y gate regulated by lipids and anesthetics” (Nature Structural & Molecular Biology, 2025), this text covers EC50 for 1 compound.

“And” between values parts separate entries of the source, which are not always exact repeats. Equal entries are not always repeated. Where two headings read alike, the source gives them in different places.

The target of this experiment is T1, THIK-1 R258A (Homo sapiens, UniProt Q9HB14, R258A).
T1 construct: expressed in transfected cells; host or cells: Xenopus oocytes (mRNA injection)
The experiment is described as follows: Inside-out excised patch recordings, oocytes, THIK-1 R258A mutant (lipid activation). It is filed as cell-based. Particulars: read-out: Linoleic acid EC50. The text has this:
Supplement 41594_2025_1497_MOESM2_ESM.xlsx, sheet "ExtData_Fig_S5f" | column: Linoleic acid EC50 (µM); R258A

T1 sequence (Q9HB14 whole entry R258A): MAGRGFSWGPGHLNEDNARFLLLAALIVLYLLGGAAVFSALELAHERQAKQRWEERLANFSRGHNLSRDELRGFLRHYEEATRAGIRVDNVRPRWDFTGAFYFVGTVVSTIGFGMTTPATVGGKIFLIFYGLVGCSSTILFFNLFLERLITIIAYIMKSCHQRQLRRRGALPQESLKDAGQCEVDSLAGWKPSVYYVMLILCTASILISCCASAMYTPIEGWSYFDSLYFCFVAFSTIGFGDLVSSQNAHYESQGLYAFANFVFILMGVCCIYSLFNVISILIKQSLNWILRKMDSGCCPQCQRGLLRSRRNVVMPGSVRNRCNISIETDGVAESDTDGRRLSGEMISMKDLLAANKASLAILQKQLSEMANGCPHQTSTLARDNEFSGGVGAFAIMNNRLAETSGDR

Consider `CCCCC/C=C\C/C=C\CCCCCCCC(=O)O` [linoleic acid], for which the EC50 (as a rule, the concentration needed to bring the measured effect to its halfway point) is 24.9 µM and 30.3 µM and 69.4 µM and 74.3 µM and 47.4 µM and 62.2 µM and 21.9 µM and 23.3 µM and 47.9 µM and 30 µM (individual recordings); 43.2 µM (mean).
